Tests used:
GSK3β = GSK3β (Homo sapiens, UniProt P49841); experiment: GSK3beta assay (SPA, biotinylated phosphorylated CREB peptide, ATP-P33); type: biochemical; conditions: ranges of pIC50 (−log IC50 (M)); 1 μM ATP, room temperature, one hour; read-out: GSK3b pIC50 (converted)
Protocol: (§1) GSK3beta assays were performed at room temperature in a 100 μl reaction volume of 25 mM Tris (pH 7.4) containing 10 mM MgCl2.6H2O, 1 mM DTI, 0.1 mgiml BSA, 5% glycerol and containing 5.7 ng/μl GSK3β, 5 μM biotinylated phosphorylated CREB peptide, 1 μM ATP, 0.85 μCi/ml ATP-P^33 and a suitable amount of a test compound of formula (I). After one hour, the reaction was terminated by adding 70 μl of Stop mix (0.1 mM ATP, 5 mg/ml streptavidin coated PVT SPA bead pH 11.0). The beads to which the phosphorylated CREB peptide is attached were allowed to settle overnight and the radioactivity of the beads was counted in a microtiterplate scintillation counter and compared with the results obtained in a control experiment (without the presence of a test compound) in order to determine the percentage of GSK3β inhibition. The IC50 value, i.e. the concentration (M) of the test compound at which 50% of GSK3β is inhibited, was calculated from the dose response curve obtained by performing the above-described GSK3β assay in the presence of different amounts of the test compound.

GSK3alpha = GSK3alpha (Homo sapiens, UniProt P49840); experiment: GSK3alpha assay (same as the GSK3beta assay, 0.25 ng/μl GSK3alpha); type: biochemical; conditions: ranges of pIC50 (−log IC50 (M)), 1 μM ATP, read-out: GSK3a pIC50 (converted)
GSK3alpha, sequence (P49840 whole entry, species assumed): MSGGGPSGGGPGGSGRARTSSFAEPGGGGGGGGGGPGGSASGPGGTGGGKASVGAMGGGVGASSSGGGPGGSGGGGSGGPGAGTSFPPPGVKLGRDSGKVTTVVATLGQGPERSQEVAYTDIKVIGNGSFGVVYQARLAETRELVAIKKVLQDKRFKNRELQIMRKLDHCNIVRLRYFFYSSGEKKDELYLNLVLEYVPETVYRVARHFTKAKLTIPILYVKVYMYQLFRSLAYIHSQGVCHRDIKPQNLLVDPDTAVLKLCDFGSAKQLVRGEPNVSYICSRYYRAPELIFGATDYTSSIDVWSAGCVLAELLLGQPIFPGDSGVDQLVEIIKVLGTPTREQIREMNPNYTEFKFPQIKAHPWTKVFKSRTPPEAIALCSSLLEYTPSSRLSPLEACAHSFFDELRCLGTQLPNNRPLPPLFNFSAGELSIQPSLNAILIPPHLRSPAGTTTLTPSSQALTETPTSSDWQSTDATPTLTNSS
Protocol: as §1
The GSK3alpha assay was performed in the same way as described above for the GSK3beta assay except for the concentration of GSK3alpha which is 0.25 ng/μl.

GSK3β, sequence (P49841 whole entry, species assumed): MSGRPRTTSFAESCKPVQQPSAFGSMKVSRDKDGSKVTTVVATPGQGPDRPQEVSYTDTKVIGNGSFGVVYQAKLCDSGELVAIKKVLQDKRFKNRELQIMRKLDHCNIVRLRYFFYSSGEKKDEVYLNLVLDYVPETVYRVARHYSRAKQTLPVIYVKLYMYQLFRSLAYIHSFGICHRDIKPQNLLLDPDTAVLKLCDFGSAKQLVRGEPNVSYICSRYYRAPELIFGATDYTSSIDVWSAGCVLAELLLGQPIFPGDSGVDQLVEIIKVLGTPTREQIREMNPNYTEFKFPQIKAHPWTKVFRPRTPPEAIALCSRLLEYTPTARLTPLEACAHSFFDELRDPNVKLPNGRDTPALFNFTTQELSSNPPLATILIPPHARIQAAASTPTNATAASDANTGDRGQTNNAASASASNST

| IC50 (GSK3β) | IC50 (GSK3alpha) | Structure (SMILES) |
| --- | --- | --- |
| < 1e-08 M | < 1e-08 M | Fc1cccc(-n2nnc3cnc(Nc4cccc(-c5cnco5)c4)nc32)c1 [Compound 20] |
| < 1e-08 M | < 1e-08 M | CN1CCN(c2ccc(Nc3ncc4nnn(-c5cccc(CCO)c5)c4n3)cc2)CC1 [Compound 77] |
| < 1e-08 M | < 1e-08 M | COCCOCc1cccc(-n2nnc3cnc(Nc4ccc(C(=O)N5CCN(C)CC5)cc4)nc32)c1 [Compound 111] |
| < 1e-08 M |  | Cn1ccnc1-c1cccc(Nc2ncc3nnn(-c4ccc5c(c4)OCCO5)c3n2)c1 [Compound 66] |
| < 1e-08 M | < 1e-08 M | COCc1cccc(-n2nnc3cnc(Nc4cccc(-c5nnnn5C)c4)nc32)c1 [Compound 99] |
| < 1e-08 M | < 1e-08 M | Fc1cccc(-n2nnc3cnc(Nc4cccc(-c5ncc[nH]5)c4)nc32)c1 [Compound 149] |
| 1e-08 to 1e-07 M |  | Cc1nccc(-c2cccc(Nc3ncc4nnn(-c5cccc(Br)c5)c4n3)c2)n1 [Compound 48] |
| 1e-08 to 1e-07 M | < 1e-08 M | COCc1cccc(-n2nnc3cnc(Nc4ccc(CN5CCN(C)CC5)cc4)nc32)c1 [Compound 101] |
| 1e-08 to 1e-07 M | < 1e-08 M | Cn1ccnc1-c1cccc(Nc2ncc3nnn(-c4cccc(C(N)=O)c4)c3n2)c1 [Compound 7] |
| 1e-08 to 1e-07 M | 1e-08 to 1e-07 M | Cn1cc(Br)c(-c2cccc(Nc3ncc4nnn(-c5cccc(F)c5)c4n3)c2)n1 [Compound 25] |
| < 1e-08 M | < 1e-08 M | CCOC(=O)NCc1cccc(-n2nnc3cnc(Nc4cccc(-c5cnco5)c4)nc32)c1 [Compound 125] |
| < 1e-08 M | < 1e-08 M | COCc1cccc(-n2nnc3cnc(Nc4cccc(-c5ccnc(N)n5)c4)nc32)c1 [Compound 100] |
| < 1e-08 M | < 1e-08 M | CN1CCN(CCCOc2ccc(Nc3ncc4nnn(-c5cccc(CC#N)c5)c4n3)cc2)CC1 [Compound 94] |
| < 1e-08 M | < 1e-08 M | Cc1nc(-c2cccc(Nc3ncc4nnn(-c5cccc(F)c5)c4n3)c2)cs1 [Compound 21] |
| 1e-08 to 1e-07 M | 1e-08 to 1e-07 M | CC(C)CC(=O)NCc1cccc(-n2nnc3cnc(Nc4cccc(-c5cnco5)c4)nc32)c1 [Compound 120] |
| 1e-08 to 1e-07 M |  | Cn1ccnc1-c1cccc(Nc2ncc3nnn(-c4ccc(CCO)cc4)c3n2)c1 [Compound 56] |
| 1e-08 to 1e-07 M | 1e-08 M | COCCOCc1cccc(-n2nnc3cnc(Nc4ccc(OCCCN5CCN(C)CC5)cc4)nc32)c1 [Compound 113] |
| < 1e-08 M | < 1e-08 M | Cn1nccc1-c1cccc(Nc2ncc3nnn(-c4cccc(F)c4)c3n2)c1 [Compound 23] |
| 1e-08 to 1e-07 M |  | Cn1ccnc1-c1cccc(Nc2ncc3nnn(-c4ccc5cn[nH]c5c4)c3n2)c1 [Compound 148] |
| < 1e-08 M | < 1e-08 M | Nc1nccc(-c2cccc(Nc3ncc4nnn(-c5cccc(S(N)(=O)=O)c5)c4n3)c2)n1 [Compound 147] |
| 1e-08 to 1e-07 M | 1e-08 to 1e-07 M | COc1cccc(-n2nnc3cnc(Nc4cccc(N5CCN(C)CC5)c4)nc32)c1 [Compound 129] |
| < 1e-08 M | < 1e-08 M | COCc1cccc(-n2nnc3cnc(Nc4ccc(C(=O)N5CCN(C)CC5)cc4)nc32)c1 [Compound 103] |

| IC50 (GSK3β) | IC50 (GSK3alpha) | Structure (SMILES) |
| --- | --- | --- |
| 1e-08 to 1e-07 M | < 1e-08 M | COCCOc1cccc(-n2nnc3cnc(Nc4ccc(C(=O)NCCN5CCOCC5)cc4)nc32)c1 [Compound 134] |
| 1e-08 to 1e-07 M |  | COCCOc1cccc(-n2nnc3cnc(Nc4ccc(OCCN5CCN(C)CC5)cc4)nc32)c1 [Compound 153] |
| < 1e-08 M | < 1e-08 M | Cn1nnc(-c2cccc(Nc3ncc4nnn(-c5cccc(F)c5)c4n3)c2)n1 [Compound 29] |
| < 1e-08 M | < 1e-08 M | COCc1cccc(-n2nnc3cnc(Nc4cccc(-c5cnco5)c4)nc32)c1 [Compound 98] |
| < 1e-08 M | < 1e-08 M | CN1CCN(CCCOc2ccc(Nc3ncc4nnn(-c5cccc(CCO)c5)c4n3)cc2)CC1 [Compound 83] |
| 1e-08 M | < 1e-08 M | COCc1cccc(-n2nnc3cnc(Nc4ccc(OCCCN5CCN(C)CC5)cc4)nc32)c1 [Compound 106] |
| < 1e-08 M | < 1e-08 M | Nc1nccc(-c2cccc(Nc3ncc4nnn(-c5ccccc5)c4n3)c2)n1 [Compound 151] |
| < 1e-08 M | < 1e-08 M | Cn1cc(Br)c(-c2cccc(Nc3ncc4nnn(-c5cccc(CCO)c5)c4n3)c2)n1 [Compound 152] |
| < 1e-08 M | < 1e-08 M | N#CCc1cccc(-n2nnc3cnc(Nc4cccc(-c5cnco5)c4)nc32)c1 [Compound 86] |
| < 1e-08 M | < 1e-08 M | Cc1nccc(-c2cccc(Nc3ncc4nnn(-c5cccc(F)c5)c4n3)c2)n1 [Compound 32] |
| 1e-08 to 1e-07 M | 1e-08 to 1e-07 M | Fc1cccc(-n2nnc3cnc(Nc4ccc(OCCCN5CCCCC5)cc4)nc32)c1 [Compound 142] |
| 1e-08 to 1e-07 M |  | Brc1cccc(-n2nnc3cnc(Nc4ccc(-n5cncn5)cc4)nc32)c1 [Compound 51] |
| 1e-08 to 1e-07 M | 1e-08 to 1e-07 M | O=S(=O)(NCCNc1ncccn1)c1cccc(Nc2ncc3nnn(-c4cccc(F)c4)c3n2)c1 [Compound 136] |
|  | 1e-08 to 1e-07 M | Nc1nccc(-c2cccc(Nc3ncc4nnn(-c5cccc(CNC(=O)C6CC6)c5)c4n3)c2)n1 [Compound 119] |
| 1e-08 to 1e-07 M | 1e-08 to 1e-07 M | c1ccc(-n2nnc3cnc(Nc4ccc(N5CCOCC5)cc4)nc32)cc1 [Compound 11] |
| < 1e-08 M | < 1e-08 M | Brc1cccc(-n2nnc3cnc(Nc4cccc(C5=NCNC5)c4)nc32)c1 [Compound 43] |
| 1e-08 to 1e-07 M | < 1e-08 M | CN1CCN(CCOc2ccc(Nc3ncc4nnn(-c5cccc(F)c5)c4n3)cc2)CC1 [Compound 140] |
| 1e-08 to 1e-07 M | > 1e-07 M | Fc1cccc(-n2nnc3cnc(Nc4ccc(-n5cccn5)cc4)nc32)c1 [Compound 39] |
| < 1e-08 M |  | Fc1cccc(-n2nnc3cnc(Nc4cccc(-c5cncnc5)c4)nc32)c1 [Compound 31] |
| < 1e-08 M |  | Cn1ccnc1-c1cccc(Nc2ncc3nnn(-c4ccc5c(c4)CCC5)c3n2)c1 [Compound 65] |
| < 1e-08 M | < 1e-08 M | CNc1nccc(-c2cccc(Nc3ncc4nnn(-c5cccc(F)c5)c4n3)c2)n1 [Compound 34] |
| > 1e-07 M | < 1e-08 M | OCCc1ccc(-n2nnc3cnc(Nc4ccc(N5CCOCC5)cc4)nc32)cc1 [Compound 85] |

| IC50 (GSK3β) | IC50 (GSK3alpha) | Structure (SMILES) |
| --- | --- | --- |
| < 1e-08 M | < 1e-08 M | Fc1cccc(-n2nnc3cnc(Nc4cccc(-c5cc[nH]n5)c4)nc32)c1 [Compound 22] |
| < 1e-08 M | < 1e-08 M | N#CCc1cccc(-n2nnc3cnc(Nc4ccc(C(=O)NCCN5CCOCC5)cc4)nc32)c1 [Compound 92] |
| < 1e-08 M |  | COc1cc(-n2nnc3cnc(Nc4cccc(-c5nccn5C)c4)nc32)cc(C(F)(F)F)c1 [Compound 63] |
| < 1e-08 M | < 1e-08 M | N#CCc1cccc(-n2nnc3cnc(Nc4ccc(CN5CCC(O)CC5)cc4)nc32)c1 [Compound 90] |
| < 1e-08 M | < 1e-08 M | Nc1nccc(-c2cccc(Nc3ncc4nnn(-c5cccc(CO)c5)c4n3)c2)n1 [Compound 97] |
| < 1e-08 M | < 1e-08 M | COCCOCc1cccc(-n2nnc3cnc(Nc4ccc(C(=O)NCCN5CCOCC5)cc4)nc32)c1 [Compound 112] |
| < 1e-08 M | < 1e-08 M | COc1cccc(-n2nnc3cnc(Nc4cccc(-c5nnn(C)n5)c4)nc32)c1 [Compound 18] |
| < 1e-08 M | < 1e-08 M | OCCc1cccc(-n2nnc3cnc(Nc4ccc(Nc5ncccn5)cc4)nc32)c1 [Compound 84] |
| > 1e-07 M | < 1e-08 M | Cn1nccc1-c1cccc(Nc2ncc3nnn(-c4cccc(Br)c4)c3n2)c1 [Compound 8] |
| 1e-08 to 1e-07 M |  | COc1ccc(-n2nnc3cnc(Nc4cccc(-c5nccn5C)c4)nc32)cc1F [Compound 61] |
| > 1e-07 M |  | Fc1cccc(-n2nnc3cnc(Nc4ccc(-n5cccc5)cc4)nc32)c1 [Compound 37] |
| 1e-08 to 1e-07 M |  | Cn1cc(Br)c(-c2cccc(Nc3ncc4nnn(-c5cccc(Br)c5)c4n3)c2)n1 [Compound 45] |
| 1e-08 to 1e-07 M |  | Cc1ccc(-n2nnc3cnc(Nc4cccc(-c5nccn5C)c4)nc32)cc1Cl [Compound 60] |
| < 1e-08 M |  | Cc1cccc(-n2nnc3cnc(Nc4cccc(-c5nccn5C)c4)nc32)c1 [Compound 14] |
| 1e-08 to 1e-07 M |  | Cn1ccnc1-c1cccc(Nc2ncc3nnn(-c4ccc(Br)cc4)c3n2)c1 [Compound 49] |
|  | 1e-08 to 1e-07 M | O=C(O)c1cc(Nc2ncc3nnn(-c4cccc(F)c4)c3n2)ccc1N1CCOCC1 [Compound 150] |
| 1e-08 to 1e-07 M |  | CSc1ccc(-n2nnc3cnc(Nc4cccc(-c5nccn5C)c4)nc32)cc1 [Compound 55] |
| < 1e-08 M |  | COc1cccc(-n2nnc3cnc(Nc4cccc(-c5nccn5C)c4)nc32)c1 [Compound 17] |
| < 1e-08 M |  | COCCOCc1cccc(-n2nnc3cnc(Nc4ccc(N5CCOCC5)cc4)nc32)c1 [Compound 107] |
| < 1e-08 M |  | COc1ccc(-n2nnc3cnc(Nc4cccc(-c5nccn5C)c4)nc32)cc1 [Compound 3] |
| > 1e-07 M |  | CC(=O)N(C)c1ccc(-n2nnc3cnc(Nc4cccc(-c5nccn5C)c4)nc32)cc1 [Compound 57] |
